Reference: US8207178B2 (priority 2007, dated 2012)

What was measured:
HIV-1 K103N-L100I mutant = test: microbe, parasite or virus in culture; format: cell-based, human immunodeficiency virus type 1 (HIV-1); conditions: Human immunodeficiency virus 1, HeLa, read-out: EC50 mutant K103N-L100I, mutant K103N-L100I
wild type HIV-1 = test: microbe, parasite or virus in culture; format: cell-based, human immunodeficiency virus type 1 (HIV-1); conditions: Human immunodeficiency virus 1, Hela-JC53

Row | SMILES | EC50 (HIV-1 K103N-L100I mutant) | EC50 (wild type HIV-1)
1 | COc1ncc(-c2cc(C)c(Oc3nc(Nc4ccc(C#N)cc4)nc4ccn(C)c34)c(C)c2)cn1 [Example 20, 4-(4-(4-(2-Methoxypyrimidin-5-yl)-2,6-dimethylphenoxy)-5-methyl-5H-pyrrolo [3,2-d]pyrimidin-2-ylamino)benzonitrile] | 1 to 10 nM | < 1 nM
2 | Cc1cc(-c2ccncc2C#N)cc(C)c1Oc1nc(Nc2ccc(C#N)cc2)nc2c(Cl)cn(C)c12 [Example 31, 4-(4-(7-Chloro-2-(4-cyanophenylamino)-5-methyl-5H-pyrrolo[3,2-d]pyrimidin-4-yloxy)-3,5-dimethyl-phenyl)nicotinonitrile] | < 1 nM | < 1 nM
3 | Cc1cc(-c2ccc(C(N)=O)cc2)cc(Cl)c1Oc1nc(Nc2ccc(C#N)cc2)nc2c1ncn2C [Example 117, 3′-chloro-4′-(2-(4-cyanophenylamino)-9-methyl-9H-purin-6-yloxy)-5′-methylbiphenyl-4-carboxamide] | 1 to 10 nM | < 1 nM
4 | Cc1cc(-c2ccc(C(N)=O)cn2)cc(C)c1Oc1nc(Nc2ccc(C#N)cc2)nc2c1ncn2C [Example 124, 6-(4-(2-(4-cyanophenylamino)-9-methyl-9H-purin-6-yloxy)-3,5-dimethylphenyl)nicotinamide] | > 10 nM | 1 to 10 nM
5 | Cc1cc(-c2c(C)nn(C)c2C)cc(C)c1Oc1nc(Nc2ccc(C#N)cc2)nc2ccn(C)c12 [Example 21] | > 10 nM | 1 to 10 nM
6 | Cc1cc(-c2ccc3c(c2)OCO3)cc(C)c1Oc1nc(Nc2ccc(C#N)cc2)nc2ccn(C)c12 [Example 69, 4-(4-(4-(benzo[d][1,3]dioxol-5-yl)-2,6-dimethylbiphenoxy)-5-methyl-5H-pyrrolo[3,2-d]pyrimidin-2-ylamino) benzonitrile] | > 10 nM | 1 to 10 nM
7 | Cc1cc(-c2cccc3cccnc23)cc(C)c1Oc1nc(Nc2ccc(C#N)cc2)nc2ccn(C)c12 [Example 43, 4-(4-(2,6-Dimethyl-4-(quinolin-8-yl)phenoxy)-5-methyl-5H-pyrrolo[3,2-d]pyrimidin-2-ylamino) benzonitrile] | > 10 nM | 1 to 10 nM
8 | Cc1cc(-c2ccc(S(N)(=O)=O)cc2)cc(C)c1Oc1nc(Nc2ccc(C#N)cc2)nc2ccn(C)c12 [Example 72, 4′-(2-(4-cyanophenylamino)-5-methyl-5H-pyrrolo[3,2-d]pyrimidin-4-yloxy)-3′,5′-dimethylbiphenyl-4-sulfonamide] | < 1 nM | 1 to 10 nM
9 | Cc1cc(-c2ccncc2)cc(C)c1Oc1nc(Nc2ccc(C#N)cc2)nc2c(Cl)cn(C)c12 [Example 18, 4-(7-Chloro-4-(2,6-dimethyl-4-(pyridin-4-yl)phenoxy)-5-methyl-5H-pyrrolo[3,2-d]pyrimidin-2-ylamino)benzonitrile] | 1 to 10 nM | 1 to 10 nM
10 | Cc1cc(-c2ccc(C(N)=O)cc2F)cc(C)c1Oc1nc(Nc2ccc(C#N)cc2)nc2c1ncn2C [Example 56, 4′-(2-(4-Cyanophenylamino)-9-methyl-9H-purin-6-yloxy)-2-fluoro-3′,5′-dimethylbiphenyl-4-carboxamide] | 1 to 10 nM | 1 to 10 nM
11 | Cc1cc(-c2cc(F)nc(F)c2)cc(C)c1Oc1nc(Nc2ccc(C#N)cc2)nc2ccn(C)c12 [Example 4, 4-(4-(4-(2,6-Difluoropyridin-4-yl)-2,6-dimethylphenoxy)-5-methyl-5H-pyrrolo[3,2-d]pyrimidin-2-ylamino) benzonitrile] | > 10 nM | 1 to 10 nM
12 | COc1c(F)cc(F)cc1-c1cc(C)c(Oc2nc(Nc3ccc(C#N)cc3)nc3ccn(C)c23)c(C)c1 [Example 67, 4-(4-(3′,5′-difluoro-2′-methoxy-3,5-dimethylbiphenyl-4-yloxy)-5-methyl-5H-pyrrolo[3,2-d]pyrimidin-2-ylamino) benzonitrile] | > 10 nM | < 1 nM
13 | COC(=O)c1ccc(-c2cc(C)c(Oc3nc(Nc4ccc(C#N)cc4)nc4[nH]cnc34)c(C)c2)cn1 [Example 130, Methyl 5-(4-(2-(4-cyanophenylamino)-9H-purin-6-yloxy)-3,5-dimethylphenyl)picolinate] | > 10 nM | 1 to 10 nM
14 | Cc1cc(-c2ccc(S(=O)(=O)N(C)C)cc2)cc(C)c1Oc1nc(Nc2ccc(C#N)cc2)nc2ccn(C)c12 [Example 42, 4′-(2-(4-Cyanophenylamino)-5-methyl-5H-pyrrolo[3,2-d]pyrimidin-4-yloxy)-N,N,3′,5′-tetramethylbiphenyl-4-sulfonamide] | > 10 nM | 1 to 10 nM
15 | Cc1cc(-c2ccc(C(N)=O)cc2)cc(C)c1Oc1nc(Nc2ccc(C#N)cc2)nc2c1ncn2C [Example 109, 4′-(2-(4-cyanophenylamino)-9-methyl-9H-purin-6-yloxy)-3′,5′-dimethylbiphenyl-4-carboxamide] | 1 to 10 nM | < 1 nM
16 | Cc1cc(-c2ccc(C#N)cc2)cc(C)c1Oc1nc(Nc2ccc(C#N)cc2)nc2ccn(C)c12 [Example 44, 4′-(2-(4-Cyanophenylamino)-5-methyl-5H-pyrrolo[3,2-d]pyrimidin-4-yloxy)-3′,5′-dimethylbiphenyl-4-carbonitrile] | 1 to 10 nM | 1 to 10 nM

Row | SMILES | EC50 (HIV-1 K103N-L100I mutant) | EC50 (wild type HIV-1)
17 | Cc1cc(-c2ccc(C(=O)N3CCC3)cc2)cc(C)c1Oc1nc(Nc2ccc(C#N)cc2)nc2ccn(C)c12 [Example 90] | > 10 nM | 1 to 10 nM
18 | Cc1cc(-c2ccnn2C)cc(C)c1Oc1nc(Nc2ccc(C#N)cc2)nc2ccn(C)c12 [Example 25, 4-(4-(2,6-Dimethyl-4-(1-methyl-1H-pyrazol-5-yl)phenoxy)-5-methyl-5H-pyrrolo[3,2-d]pyrimidin-2-ylamino)benzonitrile] | < 1 nM | < 1 nM
19 | Cc1cc(-c2ccnnc2)cc(C)c1Oc1nc(Nc2ccc(C#N)cc2)nc2c1ncn2C [Example 59, 4-(6-(2,6-Dimethyl-4-(pyridazin-4-yl)phenoxy)-9-methyl-9H-purin-2-ylamino)benzonitrile] | > 10 nM | 1 to 10 nM
20 | Cc1cc(-c2ccc(C(=O)N3CCC(C#N)C3)cc2)cc(C)c1Oc1nc(Nc2ccc(C#N)cc2)nc2ccn(C)c12 (stereo not shown) [Example 91, 1-(4′-(2-(4-cyanophenylamino)-5-methyl-5H-pyrrolo[3,2-d]pyrimidin-4-yloxy)-3′,5′-dimethylbiphenylcarbonyl) pyrrolidine-3-carbonitrile] | > 10 nM | > 10 nM
21 | Cc1cc(-c2ccc(C(N)=O)nc2)cc(C)c1Oc1nc(Nc2ccc(C#N)cc2)nc2ncn(C)c12 [Example 118, 5-(4-(2-(4-cyanophenylamino)-7-methyl-7H-purin-6-yloxy)-3,5-dimethylphenyl)picolinamide] | 1 to 10 nM | 1 to 10 nM
22 | Cc1cc(-c2ccccc2)cc(C)c1Oc1nc(Nc2ccc(C#N)cc2)nc2ccn(C)c12 [Example 95, 4-(4-(3,5-Dimethylbiphenyl-4-yloxy)-5-methyl-5H-pyrrolo[3,2-d]pyrimidin-2-ylamino)benzonitrile] | > 10 nM | > 10 nM
23 | Cc1cc(-c2ccccc2S(N)(=O)=O)cc(C)c1Oc1nc(Nc2ccc(C#N)cc2)nc2ccn(C)c12 [Example 73, 4′-(2-(4-cyanophenylamino)-5-methyl-5H-pyrrolo[3,2-d]pyrimidin-4-yloxy)-3′,5′-dimethylbiphenyl-2-sulfonamide] | > 10 nM | > 10 nM
24 | Cc1cc(-c2ccc(F)c(C#N)c2)cc(C)c1Oc1nc(Nc2ccc(C#N)cc2)nc2ccn(C)c12 [Example 63, 4′-(2-(4-cyanophenylamino)-5-methyl-5H-pyrrolo[3,2-d]pyrimidin-4-yloxy)-4-fluoro-3′,5′-dimethylbiphenyl-3-carbonitrile] | 1 to 10 nM | < 1 nM
25 | COc1cncc(-c2cc(C)c(Oc3nc(Nc4ccc(C#N)cc4)nc4ccn(C)c34)c(C)c2)c1 [Example 87, 4-(4-(4-(5-methoxypyridin-3-yl)-2,6-dimethylphenoxy)-5-methyl-5H-pyrrolo[3,2-d]pyrimidin-2-ylamino) benzonitrile] | > 10 nM | 1 to 10 nM
26 | Cc1cc(-c2cnc3ccccc3c2)cc(C)c1Oc1nc(Nc2ccc(C#N)cc2)nc2ccn(C)c12 [Example 41, 4-(4-(2,6-Dimethyl-4-(quinolin-3-yl)phenoxy)-5-methyl-5H-pyrrolo[3,2-d]pyrimidin-2-ylamino) benzonitrile] | > 10 nM | 1 to 10 nM
27 | Cc1cc(-c2ccncc2)cc(C)c1Oc1nc(Nc2ccc(C#N)cc2)nc2c1cnn2C [Example 51, 4-(4-(2,6-Dimethyl-4-(pyridin-4-yl)phenoxy)-1-methyl-1H-pyrazolo[3,4-d]pyrimidin-6-ylamino) benzonitrile] | > 10 nM | 1 to 10 nM
28 | Cn1cnc2nc(Nc3ccc(C#N)cc3)nc(Oc3c(Cl)cc(-c4ccc(C(N)=O)cc4)cc3Cl)c21 [Example 112, 3′,5′-dichloro-4′-(2-(4-cyanophenylamino)-7-methyl-7H-purin-6-yloxy)biphenyl-4-carboxamide] | 1 to 10 nM | < 1 nM
29 | Cc1cc(-c2ccc(C(=O)N3CCC3)cn2)cc(C)c1Oc1nc(Nc2ccc(C#N)cc2)nc2[nH]cnc12 [Example 125, 4-(6-(4-(5-(azetidine-1-carbonyl)pyridin-2-yl)-2,6-dimethylphenoxy)-9H-purin-2-ylamino)benzonitrile] | 1 to 10 nM | 1 to 10 nM
30 | Cc1cc(-c2ccc(C(=O)N(C)C)cc2)cc(C)c1Oc1nc(Nc2ccc(C#N)cc2)nc2ccn(C)c12 [Example 89, 4′-(2-(4-cyanophenylamino)-5-methyl-5H-pyrrolo[3,2-d]pyrimidin-4-yloxy)-N,N,3′,5′-tetramethylbiphenyl-4-carboxamide] | > 10 nM | 1 to 10 nM
31 | CCOC(=O)c1ccc(-c2cc(C)c(Oc3nc(Nc4ccc(C#N)cc4)nc4nc[nH]c34)c(C)c2)cn1 [Example 120, Ethyl 5-(4-(2-(4-cyanophenylamino)-7H-purin-6-yloxy)-3,5-dimethylphenyl)picolinate] | > 10 nM | > 10 nM
32 | N#Cc1ccc(Nc2nc(Oc3ccc(-c4ccncc4)cc3Cl)c3[nH]cnc3n2)cc1 [Example 102, 4-(6-(2-Chloro-4-(pyridin-4-yl)phenoxy)-7H-purin-2-ylamino)benzonitrile] | > 10 nM | < 1 nM
